Numbered stars: 1 amine (or outer) side, 2 acyl side, 3 side chain; on linkers, the order of the positions; unused ones are H or OH. Bridge positions count the residues as written; N and C are the ends. Square brackets hold non-standard residues; d marks the D form. Peptide text beside a SMILES is read from it. I, II: the chains in the order shown. Actinocin(9to1) = Cc1c2oc3c(C)ccc(C(=O)[*:1])c3nc-2c(C(=O)[*:2])c(N)c1=O; NMeV = CN[C@H](C(=O)O)C(C)C; Sar = CNCC(=O)O
What was measured:
[1] = tested on: Aplysia sensory-motor neuron cocultures; test: Short- and long-term synaptic facilitation (EPSP amplitude in motor neuron L7) in sensory-motor neuron cocultures; assay type: cell-based
Protocol: Aplysia sensory neurons from the pleural ganglia of adult animals (80–100 g) were cocultured with the motor neuron L7 from juvenile animals (0.5–4 g). After 4–5 days in culture, the strength of the synaptic connections between the sensory and motor cell was measured electrophysiologically, as previously described (Montarolo et al. 1986, Alberini et al., 1994). The motor neuron was impaled with a glass microelectrode filled with 2.5M KCl (10 MΩ (resistance) and its membrane potential was held at 30 mV below its resting value. The EPSP was evoked by extracellular stimulation of the sensory neuron and the data were stored on a 4 channel tape recorder.
Two protocols were used to induce synaptic facilitation in Aplysia cocultures. In the first, after testing the initial EPSP amplitude, 10 μM 5-HT was applied for 5 min (single pulse). […] The amount of facilitation was calculated as the percentage change in EPSP amplitude recorded before and at the different time points after the single 5-HT application. In the other group of experiments, long-term facilitation was evoked by five exposures to 10 μM 5-HT for 5 min each, at 20 min intervals (5 pulses). The facilitation was calculated as the percentage change in EPSP amplitude 24 hr after the five pulses of 5-HT. The antisera, adjusted to the osmolarity of Aplysia neurons (Alberini et al., 1994), were pressure injected into the sensory neurons 1 hr before 5-HT treatment. Where indicated, anisomycin (10 μM) or actinomycin D (50 μg/ml) was added to the cocultures 1 hr before the 5-HT pulse and was present continuously during the 5-HT treatment. All data are presented as mean percentage change ±SEM in the EPSP amplitude measured after treatment, as compared with its initial pretreatment amplitude. A one way analysis of variance and Newman Keuls multiple range test were used to determine the significance of the EPSP changes.

ApCREB-2 mRNA = test: Steady state level of ApCREB-2 mRNA after exposure to agents; design: species or system Aplysia; settings: following exposure to the agent
Protocol: RNA was isolated from cultures of approximately 200 Aplysia sensory neurons that had been exposed to none, one, or five pulses of 5-HT (10 μM) as indicated. As a control, one half of the RNA was processed omitting reverse transcriptase from the reaction (—RT).
(FIG. 3B) Northern blot analysis of RNA isolated from CNS of Aplysia exposed to 5-HT in vivo. CNSs were dissected from anesthetized animals after exposing them in vivo to 5-HT (50 μM) for the time indicated above each lane. Eight μg of total RNA from each timepoint was separated in a 1% agarose gel, blotted and consecutively hybridized with probes specific for ApCREB-2, ApCREB-1, ApC/EBP, and ribosomal protein S4 transcripts.
Cultures of approximately 200 Aplysia sensory neurons, established by the dissociation of the pleural sensory cluster in a single dish, were exposed to 10 μM 5-HT for 5 min once or five times separated by 20 min. After washing with ASW, cells were lysed by 100 μl of the guanidium thiocyanate solution and the RNA was isolated. For RT-PCR, the isolated RNA was treated with RNAse free DNAse (Boehringer), reextracted as above and processed using RT-PCR kit (Boehringer). The sequence of the primers used were […]

[2] = tested on: Aplysia sensory-motor neuron cocultures; test: Number of fluorescent sensory neuron varicosities contacting the motor neuron; assay type: cell-based; settings: 24 hr after one pulse of 5-HT; antiserum injected 1 hr before training
Protocol: Individual sensory neuron were cocultivated with a single motor cell. Glass micropipettes were filled with a 6% sterile-filtered solution of the fluorescent dye 5(6)-carboxyfluorescein (chromatographically purified; Molecular Probes) in 0.44 M KOH (pH 7.0, resistance 50-90 M. The dye was injected into the sensory neurons immediately after measuring the initial EPSP amplitude by 0.4–0.6 nA hyperpolarizing current pulses (500 ms duration at 1 Hz) for 4–6 min, phase contrast and fluorescence images of the same view areas were taken both before and 24 hr after treatment as previously described (Glanzman et al., 1990; Bailey et al., 1992).
Varicosities were identified according to criteria previously established for sensory neurons in vivo (Bailey et al., 1979; Bailey and Chen, 1983, 1988), and in vitro (Glanzman et al., 1990; Bailey et al., 1992) and included all slightly elongated spheres of approximately 2–3 μm or more in diameter.

ATF4 = test: Amount of ATF4 during neuronal differentiation of PC12 cells; assay type: cell-based, rat; settings: PC12 cells exposed during differentiation
Excerpt: The above may be tested in a cellular model of neuronal differentiation, specifically the rat pheochromocytoma cells PC12. The cell line is widely used as a model for neuronal differentiation and also for apoptosis, which is programmed neuronal cell death. PC12 cells are undifferentiated in culture and can be differentiated in vitro by exposing them to nerve growth factor (NGF) and cAMP analogs. Withdrawal of these compounds from the cell culture conditions leads to programmed cell death.
It has been investigated whether ATF4 plays a role in the neuronal differentiation of PC12 cells. […] In addition, overexpression of ATF4 in PC12 cells by transfecting expression constructs with constitutive CMV promoter and ATF4 cDNA prevents the PC12 cells from undergoing neuronal differentiation. […] It is important to also study the role of ATF4 in apoptosis. Since both differentiation and cell death in PC12 cell culture involve similar signal transduction pathways, it is reasonable that ATF4 may be involved in this process as well.

[3] = tested on: CRE-mediated transcription (5xCRE-VIP-lacZ reporter); test: 5xCRE-VIP-lacZ reporter, transient cotransfection of F9 cells; assay type: cell-based, mouse
Protocol: (FIG. 5B) Transient transfections of F9 cells using a 5xCRE-VIP-lacZ reporter plasmid. The indicated expression constructs were cotransfected with 5xCRE-VIP-lacZ reporter as in (A), except that relative (-galactosidase activity was calculated relative to 5xCRE-VIP-lacZ reporter and normalized to the luciferase activity of cotransfected pRSV-luc. ApCREB-2 and ApCREB-1 are activators of 5xCRE-VIP-lacZ reporter, but become mutual repressors when coexpressed.
(§1) Undifferentiated mouse F9 cells were transfected using Lipofectamine (BRL). The β-galactosidase and luciferase activities were quantitated by chemiluminescence (Galacton Plus, Tropix, and a Luciferase assay kit, Promega) in a Turner 20e luminometer.

[4] = tested on: CRE-mediated transcription (pGL3-CRE reporter); test: pGL3-CRE luciferase reporter, transient cotransfection of F9 cells; assay type: cell-based, mouse
Protocol: (FIG. 5A) Mouse F9 cells were transiently cotransfected with 1 μg of pGL3-CRE reporter plasmid along with 1 μg of each of the indicated expression plasmids: ApCREB-2=pRcRSV-ApCREB-2, ApCREB-1=pRcRSV-ApCREB-1, PKA=pRcRSV-PKA. All transfections were adjusted to 4 μg total DNA with pRcRSV vector DNA.
as §1

UASg-lacZ gene = test: GAL4 DNA binding domain activation assay in yeast; assay type: cell-based, S. cerevisiae; settings: fused to the GAL4 DNA binding domain, reporter UASg-lacZ
Protocol: The Aplysia CNS cDNA library was synthesized in pGAD10 using random hexamers and the BRL cDNA synthesis kit. Two libraries constructed from size fractionated cDNAs with average inserts >2 kb (5×10^6 independent clones each) were used in the two-hybrid screening as described previously (Fields and Song., 1989, Durfee et al., 1993, Ausubel et al., 1994). The transcriptional activation properties of ApCREB-2 and its interaction with other proteins in the two-hybrid system was analyzed using the full length ApCREB-2 and its deletion mutants subcloned in pAS1 and pACT2 vectors. The transcriptional activity of ApCREB-2/GAL4 DNA binding domain fusions was determined as decribed (Ma and Ptashne, 1987; Durfee et al., 1993). To analyze the protein interactions, ApCREB-2, ApC/EBP, rat CREB, c-fos and deletion mutants of these proteins in pAS1 and pACT2 were cotransformed into S. cerevisiae Y190, and the expressed β-galactosidase quantified as above.

[5] = 2 hr after one pulse of 5-HT paired with ApCREB-2 antiserum injection, inhibitor present during 5-HT
[6] = 24 hr after one pulse of 5-HT paired with ApCREB-2 antiserum injection, inhibitor present during 5-HT
[7] = expression plasmid alone, with PKA
[8] = expression plasmid alone, without PKA

For `NCCc1c[nH]c2ccc(O)cc12` [5-HT, serotonin], the “percent change in EPSP amplitude” value ([1]; 10 min after one pulse of 5-HT) was 13.6%, the “percent change in EPSP amplitude” value ([1]; 30 min after one pulse of 5-HT, sera injected 1 hr before) was 2.83% and the “percent change in EPSP amplitude” value ([1]; 2 hr after one pulse of 5-HT, sera injected 1 hr before) was −1%. The “facilitation of the synaptic potential” value ([1]; massed training: 25 minutes of continuous exposure to 5-HT) was “+39%”, the “duration of short-term facilitation” value ([1]; single pulse of 5-HT, no injection) was “about 10 min” and the “level of ApCREB-2 mRNA” value (ApCREB-2 mRNA) was “not affected”. For the same molecule, the “percent change in the number of sensory neuron varicosities” value [2] was −10%.

For `CNc1ccc2oc(C[C@H]3O[C@@]4(CC[C@H]3C)O[C@H]([C@H](C)C(=O)c3ccc[nH]3)[C@H](C)C[C@H]4C)nc2c1C(=O)O` [A23187], the “level of ApCREB-2 mRNA” value (ApCREB-2 mRNA) was “does not change”.

`CC(C)Cn1c(=O)n(C)c(=O)c2[nH]cnc21` [IBMX] was tested, and the “level of ApCREB-2 mRNA” value (ApCREB-2 mRNA) was “does not change”.

In the case of `Nc1ncnc2c1ncn2[C@@H]1O[C@@H]2CO[P@@](O)(=S)O[C@H]2[C@H]1O` [Rp-cAMPS], the “level of ApCREB-2 mRNA” value (ApCREB-2 mRNA) is reported as “does not change”.

`Nc1ncnc2c1ncn2[C@@H]1O[C@@H]2COP(O)(=S)O[C@H]2[C@H]1O` (some centres unmarked) [Sp-cAMPS] was tested, and the “level of ApCREB-2 mRNA” value (ApCREB-2 mRNA) was “does not change”.

For `Cc1c2oc3c(C)ccc(C(=O)N[C@@H]4C(=O)N[C@H](C(C)C)C(=O)N5CCC[C@H]5C(=O)N(C)CC(=O)N(C)[C@@H](C(C)C)C(=O)O[C@@H]4C)c3nc-2c(C(=O)N[C@@H]2C(=O)N[C@H](C(C)C)C(=O)N3CCC[C@H]3C(=O)N(C)CC(=O)N(C)[C@@H](C(C)C)C(=O)O[C@@H]2C)c(N)c1=O` [actinomycin D] (I: T[dV]P[Sar][NMeV] / II: T[dV]P[Sar][NMeV]; ester I:1-I:C, II:1-II:C; linker I:N-II:N via Actinocin(9to1)), the “percent change in EPSP amplitude” value [1, 5] was “+10.12%” and the “percent change in EPSP amplitude” value [1, 6] was 7.87%.

With `COc1ccc(C[C@H]2NC[C@H](O)[C@H]2OC(C)=O)cc1` [anisomycin] the “percent change in EPSP amplitude” value [1, 5] was “+19.17%”, the “percent change in EPSP amplitude” value [1, 6] was “+3.67%” and the “level of ApCREB-2 mRNA” value (ApCREB-2 mRNA) was “does not change”.

For `C=C1[C@@H](O)[C@@H]2O[C@]3(CC[C@H](/C=C/[C@@H](C)[C@@H]4CC(C)=C[C@@]5(O[C@H](C[C@@](C)(O)C(=O)O)CC[C@H]5O)O4)O3)CC[C@H]2O[C@@H]1[C@@H](O)C[C@H](C)[C@H]1O[C@@]2(CCCCO2)CC[C@H]1C` [okadaic acid], the “level of ApCREB-2 mRNA” value (ApCREB-2 mRNA) was “does not change”.

In the case of NGF: nerve growth factor, the “amount of ATF4” value (ATF4) is reported as “dramatically reduced”.

“rat CREB-1: wild type rat CREB expressed from pRcRSV-CREB341” gave a relative activation [3, 7] of 68.82±7.3 and a relative activation [3, 8] of 7.65±0.65.

B1: ApCREB-2: Aplysia bZIP transcription factor, 378 amino acids (SEQ ID NO 1), expressed from pRcRSV-ApCREB-2 (protein)
chain: MELDLWSEDFQLAREWGLEMPVVQTDGQFGDLKSTSRHGGDESLSLQPQGATLKLEPFEEDVLGAEWMESSDLGSFLDALGDNHERLHPFESNLLEFTSLITPDDSTVSKDILSSTLQFPTQPVNIPLYASHGAEDFSAETEFENHLSPPDSPEQVAPVINLEPVELTASHMTVISPDGLLGGMELASESLTFTELDFVNFNDSAVGSIGGAEELLGSPLSVDDVESTISFSGPSSPETSQSSIIESSPELYKVISTSSIDASKRFSPYSRSSKSKQSVKTSDAKAPRKTRTPAQPVPEHVIMEHLDKKDRKKLQNKNAAIRYRMKKKGEAQGIKGEEQELEELNTKLKTKVDDLQREIKYMKNLMEDVCKAKGIQLKM
In the case of B1, the relative activation ([4]; cotransfected with ApCREB-1, absence of PKA catalytic subunit) is reported as 0.96±0.15, the relative activation ([4]; cotransfected with ApCREB-1, presence of PKA catalytic subunit) is reported as 1.64±0.20 and the “relative activity as compared to wild type GAL4” value (UASg-lacZ gene) is reported as 82%. It also gave a relative activation ([3]; cotransfected with ApCREB-1, absence of PKA) of 1.84±0.25, a relative activation ([3]; cotransfected with ApCREB-1, presence of PKA) of 4.12±0.53 and a relative activation ([3]; cotransfected with rat CREB-1, with PKA) of 5.15±0.62. It also gave a relative activation ([3]; cotransfected with rat CREB-1, without PKA) of 2.27±0.3, a relative activation [3, 7] of 43.12±5.1 and a relative activation [3, 8] of 2.46±0.2.

Reference: patent US7015190B1, “Method for enhancing long-term memory in a subject and uses thereof” (The Trustees of Columbia University in the City of New York, priority 1996, dated 2006)
